Reference: patent US20230140132A1, “ARGINASE INHIBITORS AND METHODS OF USE” (MERCK SHARP & DOHME LLC, priority 2020, published 2023)

Tests used:
Arginase = target: T1, Arginase (Homo sapiens, UniProt P05089); assay: Arginase Thioornithine Generating Assay (TOGA); type: biochemical; conditions: recombinant arginase 1.88 nM, thioarginine substrate, fluorescence readout
T1 sequence (P05089 1-322): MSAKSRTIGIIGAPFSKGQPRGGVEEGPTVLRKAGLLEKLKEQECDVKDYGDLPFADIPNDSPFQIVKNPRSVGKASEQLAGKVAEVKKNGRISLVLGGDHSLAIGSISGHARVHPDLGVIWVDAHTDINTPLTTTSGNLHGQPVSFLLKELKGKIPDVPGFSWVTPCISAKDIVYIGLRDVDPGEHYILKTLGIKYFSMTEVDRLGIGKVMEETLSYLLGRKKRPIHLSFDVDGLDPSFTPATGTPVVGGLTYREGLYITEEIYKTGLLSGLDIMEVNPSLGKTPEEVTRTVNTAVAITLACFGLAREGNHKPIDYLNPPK
Experimental: Compounds were serially diluted in ten 3-fold steps in DMSO starting from 10 mM DMSO stocks. Compound dilutions or DMSO alone were then dispensed from the dilution plate into a Greiner black 384-well assay plate (catalog #781086) using an Echo 555 acoustic liquid handler (Labcyte).
Arginase protein was recombinantly expressed in Escherichia coli. Purified protein was then diluted in assay buffer (50 mM Tris pH 7.5, 50 mM NaCl, 1 mM manganese chloride, 0.05% bovine serum albumin to obtain a final Arginase concentration of 1.88 nM. Arginase solution (20 μL) or buffer alone (20 μL) were dispensed to wells of the assay plate using a BioRAPTR liquid dispenser (Beckman Coulter). Assay plates containing compound and arginase enzyme were incubated at room temperature for 30 minutes. Afterwards, 5 μL of 2.5 mM thioarginine (Cayman Chemicals) in assay buffer were added to each well of the assay plate using a BioRAPTR liquid dispenser. Plates were incubated at room temperature for 60 minutes and reactions were quenched by addition of 15 μL of 200 uM 7-Diethylamine-3-(4-maleimidophenyl)-4-methylcoumarin (Sigma Chemical) in 70% ethanol. Plates were briefly shaken to mix and the fluorescence was measured in an Spectramax plate reader (Molecular Devices) with a 410 nm excitation wavelength and an 490 nm emission wavelength.
Potencies were calculated by […] to the four parameter logistic IC50 equation.

[1] = system: experimental autoimmune encephalomyelitis; conditions: Xu et al. 2003; cited from earlier work
erectile response = conditions: live male rabbits; Cama et al. 2003; cited from earlier work
[2] = system: opossum internal anal sphincter muscle; conditions: Baggio et al. 1999; cited from earlier work
[3] = system: rabbit and human penile corpus cavernosum; conditions: Cox et al. 1999; cited from earlier work
[4] = system: airway hyperresponsiveness; conditions: guinea pigs, nebulizer treatment, allergic asthma model; cited from earlier work
[5] = system: corpus cavernosum of the diabetic person; conditions: ex vivo, Bivalacqua et al. 2001; cited from earlier work
[6] = system: engorgement response in the genitalia; conditions: live female rabbits; Cama et al. 2003; cited from earlier work

C[C@]1(CCCB(O)O)[C@@H](C(=O)O)N[C@@H]2CC[C@@H]21 [Example 17, (1R,3S,4R,5R)-4-(3-boronopropyl)-4-methyl-2-azabicyclo[3.2.0]heptane-3-carboxylic Acid]
IC50 (Arginase): 66.5 nM

N[C@@H](CCCCB(O)O)C(=O)O [ABH, (S)-2-amino-6-boronohexanoic acid]
disease score [1]: improves the disease score of animals | erectile response (erectile response): enhances the erectile response | relaxation of internal anal sphincter muscle [2]: relax this muscle | nitric oxide-dependent relaxation of corpus cavernosum tissue [3]: enhances the nitric oxide-dependent relaxation of this tissue | airway hyperresponsiveness [4]: prevents airway hyperresponsiveness | nitric oxide biosynthesis [5]: restores nitric oxide biosynthesis | engorgement response in the genitalia [6]: enhances the engorgement response

C[C@]1(CCCB(O)O)[C@@H](C(=O)O)N[C@H]2C[C@H]21 [Example 24, (1S,3S,4R,5S)-4-(3-boronopropyl)-4-methyl-2-azabicyclo[3.1.0]hexane-3-carboxylic Acid]
IC50 (Arginase): 5740 nM

O=C(O)[C@H]1NC[C@@H]2NC[C@@]21CCCB(O)O [Example 34, (1S,2S,5R)-1-(3-boronopropyl)-3,6-diazabicyclo[3.2.0]heptane-2-carboxylic Acid]
IC50 (Arginase): 104 nM

O=C(O)[C@H]1NC[C@@H]2NCC[C@@]21CCCB(O)O [Example 1, (3aS,4S,6aR)-3a-(3-boronopropyl)octahydropyrrolo[3,4-b]pyrrole-4-carboxylic Acid]
IC50 (Arginase): 1.61 nM
